In patent US20240287124A1, “PRODRUGS OF 4'-SUBSTITUTED NUCLEOSIDE REVERSE TRANSCRIPTASE INHIBITORS” (Merck Sharp & Dohme LLC, priority 2023, published 2024):

What follows are molecules tested on HIV-1 wild-type (R8) virus (assay: Viral KINetics in Green cells (VIKING) assay, HIV-1 replication in MT4-GFP reporter cells). Details: Human immunodeficiency virus 1, 10% normal human serum, MT4-GFP cells, HIV-1 wild-type (R8); read-out: Viking (10% NHS), IC50.
Assay type: cell-based
Procedure: Antiviral potency of the compounds was determined based on their ability to block HIV-1 replication in a GFP reporter cell line; this assay is referred to as Viral KINetics in Green cells or VIKING assay. HIV-1 replication was monitored using MT4-gag-GFP clone D3 (hereafter designate MT4-GFP) cells, which are MT4 cells modified to harbor a GFP reporter gene, the expression of which is dependent on the HIV-1 proteins tat and rev. (MT4 is a human T-cell line that is particularly sensitive to HIV-1 replication.) HIV-1 infection of MT4-GFP cells results in GFP expression approximately 24 h post-infection. MT4-GFP cells were maintained at 37° C./5% CO2/90% relative humidity in RPMI 1640 supplemented with 10% fetal bovine serum, 100 U/mL penicillin/streptomycin, and […] G418 to maintain the reporter gene. For infections, MT4-GFP cells were placed in the same medium lacking G418 and infected overnight with HIV-1 wild-type (R8) virus at an approximate multiplicity of infection of 0.01 in the same incubation conditions. Cells were then washed and resuspended in RPMI 1640 containing 10% normal human serum at 2×10^5 cells/mL. Compound plates were prepared by dispensing compounds dissolved in DMSO into wells of 384-well poly D lysine-coated plates (0.2 μl/well) using an ECHO acoustic dispenser. Each compound was tested in a 10-point serial 3-fold dilution (typical final concentrations: 4 μM-0.2 nM). Controls included no inhibitor (DMSO only) and a combination of three antiviral agents as a positive control (efavirenz, indinavir, and an integrase strand transfer inhibitor at final concentrations of 4 μM each). Infected cells were added (50 μL/well) to compound plates and were maintained at 37° C./5% CO2/90% relative humidity. Infected cells were quantified at two time points, approximately 48 h and 72 h post-infection, by counting the number of green cells in each well using an Acumen eX3 scanner. The increase in the number of green cells over ˜24 h period gives the reproductive ratio, R, which is calculated by dividing the number of green cells at 72 h over those at 48 h post-infection. The percent inhibition caused by a test compound is calculated using the following formula: […]
The dose-response curves of each test compound were plotted as % inhibition versus the compound concentration. IC50 values were determined by non-linear 4-parameter fitting of the dose-response curves.
Work on C#C[C@]1(CO)O[C@@H](n2ccc3c(NC(=O)OCCCCCCCCCCCCCC)nc(Cl)nc32)C[C@@H]1O [Example 63, Tetradecyl (2-chloro-7-((2R,4S,5R)-5-ethynyl-4-hydroxy-5-(hydroxymethyl)tetrahydrofuran-2-yl)-7H-pyrrolo[2,3-d]pyrimidin-4-yl)carbamate] yielded an IC50 of 1490 nM.
C#C[C@]1(CO)O[C@@H](n2ccc3c(NC(=O)CCCCCCC)nc(Cl)nc32)C[C@@H]1O [Example 66, N-(2-chloro-7-((2R,4S,5R)-5-ethynyl-4-hydroxy-5-(hydroxymethyl)tetrahydrofuran-2-yl)-7H-pyrrolo[2,3-d]pyrimidin-4-yl)octanamide] showed an IC50 of 197 nM.
C#C[C@]1(CO)O[C@@H](n2ccc3c(N)nc(Cl)nc32)C[C@@H]1OC(=O)OCc1cccn(C)c1=O [Example 67, (2R,3S,5R)-5-(4-amino-2-chloro-7H-pyrrolo[2,3-d]pyrimidin-7-yl)-2-ethynyl-2-(hydroxymethyl)tetrahydrofuran-3-yl ((1-methyl-2-oxo-1,2-dihydropyridin-3-yl)methyl) carbonate] showed an IC50 of 6.4 nM.
C#C[C@]1(CO)O[C@@H](n2ccc3c(NC(=O)CCC45CC6CC(CC(C6)C4)C5)nc(Cl)nc32)C[C@@H]1O [Example 69, 3-(adamantan-1-yl)-N-(2-chloro-7-((2R,4S,5R)-5-ethynyl-4-hydroxy-5-(hydroxymethyl)tetrahydrofuran-2-yl)-7H-pyrrolo[2,3-d]pyrimidin-4-yl)propanamide] gave an IC50 of 10 nM.
C#C[C@]1(CO)O[C@@H](n2ccc3c(NC(=O)CCCCCCCCCCCCC)nc(Cl)nc32)C[C@@H]1O [Example 70, N-(2-chloro-7-((2R,4S,5R)-5-ethynyl-4-hydroxy-5-(hydroxymethyl)tetrahydrofuran-2-yl)-7H-pyrrolo[2,3-d]pyrimidin-4-yl)tetradecanamide] gave an IC50 of 58 nM.
Molecule C#C[C@]1(CO)O[C@@H](n2ccc3c(NC(=O)OCCCCCCCCCC)nc(Cl)nc32)C[C@@H]1O [Example 71, Decyl(2-chloro-7-((2R,4S,5R)-5-ethynyl-4-hydroxy-5-(hydroxymethyl)tetrahydrofuran-2-yl)-7H-pyrrolo[2,3-d]pyrimidin-4-yl)carbamate] has an IC50 of 785 nM.
C#C[C@]1(CO)O[C@@H](n2ccc3c(NC(=O)OCc4ccccc4)nc(Cl)nc32)C[C@@H]1O [Example 72, benzyl (2-chloro-7-((2R,4S,5R)-5-ethynyl-4-hydroxy-5-(hydroxymethyl)tetrahydrofuran-2-yl)-7H-pyrrolo[2,3-d]pyrimidin-4-yl)carbamate] showed an IC50 of 544 nM.
Molecule C#C[C@]1(CO)O[C@@H](n2ccc3c(N)nc(Cl)nc32)C[C@@H]1OC(=O)CCCCCCCCCCCCCCC [Example 83] has an IC50 of 25 nM.
C#C[C@]1(COC(=O)OCc2cccnc2)O[C@@H](n2ccc3c(N)nc(Cl)nc32)C[C@@H]1OC(=O)OCc1ccccc1 [Example 85] was tested, and the IC50 was 3.2 nM.
C#C[C@]1(COC(=O)CCCCCCCCCCCCCCCCCCC)O[C@@H](n2ccc3c(N)nc(Cl)nc32)C[C@@H]1O [Example 91] gave an IC50 of 135 nM.
C#C[C@]1(COC(=O)OCCCCCCCCCC)O[C@@H](n2ccc3c(N)nc(Cl)nc32)C[C@@H]1OC(=O)OCCCCCCCCCC [Example 92] showed an IC50 of 3510 nM.
Molecule C#C[C@]1(COC(=O)OCc2cccn(C)c2=O)O[C@@H](n2ccc3c(N)nc(Cl)nc32)C[C@@H]1OC(=O)OCc1ccccc1 [Example 93] has an IC50 of 7.8 nM.
For C#C[C@]1(COC(=O)OCc2ccc[nH]c2=O)O[C@@H](n2ccc3c(N)nc(Cl)nc32)C[C@@H]1OC(=O)OCc1ccccc1 [Example 94], the IC50 was 6.1 nM.
C#C[C@]1(COC(=O)CC23CC(C2)C3)O[C@@H](n2ccc3c(N)nc(Cl)nc32)C[C@@H]1OC(=O)CC12CC(C1)C2 [Example 95] showed an IC50 of 8.6 nM.
C#C[C@]1(CO)O[C@@H](n2ccc3c(N)nc(Cl)nc32)C[C@@H]1OC(=O)CC12CC(C1)C2 [Example 96] showed an IC50 of 7.1 nM.
Work on C#C[C@]1(COC(=O)CC23CC(C2)C3)O[C@@H](n2ccc3c(N)nc(Cl)nc32)C[C@@H]1O [Example 97] yielded an IC50 of 1.6 nM.
For C#C[C@]1(COC(=O)[C@H](C)c2ccccc2)O[C@@H](n2ccc3c(N)nc(Cl)nc32)C[C@@H]1OC(=O)[C@H](C)c1ccccc1 [Example 98], the IC50 was 91 nM.
With C#C[C@]1(CO)O[C@@H](n2ccc3c(N)nc(Cl)nc32)C[C@@H]1OC(=O)[C@H](C)c1ccccc1 [Example 99] the IC50 was 29 nM.
With C#C[C@]1(CO)O[C@@H](n2ccc3c(N)nc(Cl)nc32)C[C@@H]1OC(=O)[C@@H](C)c1ccccc1 [Example 102] the IC50 was 43 nM.
Molecule C#C[C@]1(COC(=O)[C@@H](C)c2ccccc2)O[C@@H](n2ccc3c(N)nc(Cl)nc32)C[C@@H]1OC(=O)[C@@H](C)c1ccccc1 [Example 103] has an IC50 of 405 nM.
C#C[C@]1(COC(=O)C23CC(C2)C3)O[C@@H](n2ccc3c(N)nc(Cl)nc32)C[C@@H]1OC(=O)C12CC(C1)C2 [Example 104] gave an IC50 of 4.1 nM.
In the case of C#C[C@]1(CO)O[C@@H](n2ccc3c(N)nc(Cl)nc32)C[C@@H]1OC(=O)C12CC(C1)C2 [Example 105], the IC50 is reported as 3.5 nM.
With C#C[C@]1(COC(=O)C23CC(C2)C3)O[C@@H](n2ccc3c(N)nc(Cl)nc32)C[C@@H]1O [Example 106] the IC50 was 2.5 nM.
For C#C[C@]1(COC(=O)Cc2ccc(Cl)cc2)O[C@@H](n2ccc3c(N)nc(Cl)nc32)C[C@@H]1OC(=O)OCCC12CC3CC(CC(C3)C1)C2 [Example 107], the IC50 was 74 nM.
C#C[C@]1(COC(=O)CC23CC(C2)C3)O[C@@H](n2ccc3c(N)nc(Cl)nc32)C[C@@H]1OC(=O)OCCC12CC3CC(CC(C3)C1)C2 [Example 108] was tested, and the IC50 was 20 nM.
Molecule C#C[C@]1(COC(=O)C23CC(C2)C3)O[C@@H](n2ccc3c(N)nc(Cl)nc32)C[C@@H]1OC(=O)OCCC12CC3CC(CC(C3)C1)C2 [Example 109] has an IC50 of 21 nM.
Molecule C#C[C@]1(CO)O[C@@H](n2ccc3c(N)nc(Cl)nc32)C[C@@H]1OC(=O)OCC12CC(C1)C2 [Example 110] has an IC50 of 2.7 nM.
Molecule C#C[C@]1(CO)O[C@@H](n2ccc3c(N)nc(Cl)nc32)C[C@@H]1OC(=O)OCCC12CC(C1)C2 [Example 111] has an IC50 of 5.2 nM.
C#C[C@]1(COC(=O)OCCCCCCCC)O[C@@H](n2ccc3c(N)nc(Cl)nc32)C[C@@H]1OC(C)=O [Example 112] gave an IC50 of 28 nM.
For C#C[C@]1(COC(=O)CCCCCCCC)O[C@@H](n2ccc3c(N)nc(Cl)nc32)C[C@@H]1O [Example 118], the IC50 was 4.3 nM.
C#C[C@]1(COC(=O)OCC(C)(C)C)O[C@@H](n2ccc3c(N)nc(Cl)nc32)C[C@@H]1O [Example 123] showed an IC50 of 4.1 nM.
With C#C[C@]1(COC(=O)O[C@H](C)c2ccccc2)O[C@@H](n2ccc3c(N)nc(Cl)nc32)C[C@@H]1O [Example 125] the IC50 was 3.7 nM.
Work on C#C[C@]1(COC(=O)O[C@@H](C)c2ccccc2)O[C@@H](n2ccc3c(N)nc(Cl)nc32)C[C@@H]1O [Example 127] yielded an IC50 of 3.8 nM.
Work on C#C[C@]1(COC(=O)OCCCc2ccccc2)O[C@@H](n2ccc3c(N)nc(Cl)nc32)C[C@@H]1O [Example 128] yielded an IC50 of 3 nM.
C#C[C@]1(COC(=O)OCc2cc[nH]c(=O)c2)O[C@@H](n2ccc3c(N)nc(Cl)nc32)C[C@@H]1O [Example 130] was tested, and the IC50 was 2.9 nM.
Molecule C#C[C@]1(COC(=O)OCc2ccn(C)c(=O)c2)O[C@@H](n2ccc3c(N)nc(Cl)nc32)C[C@@H]1O [Example 131] has an IC50 of 3.5 nM.
Molecule C#C[C@]1(COC(=O)OCCCCC[C@@H]2SC[C@@H]3NC(=O)N[C@@H]32)O[C@@H](n2ccc3c(N)nc(Cl)nc32)C[C@@H]1O [Example 132] has an IC50 of 3 nM.
